One data set deals with SREBP. Description: SREBP protein expression in HepG2 cells (western blot). The data set is classed as cell-based, human. Particulars: 300 nM rexinoids, 24 h. On the procedure: Although we have confirmed that the iNOS assay correlates with in vivo efficacy, few investigators have used the induction of SREBP in vitro as a biomarker to predict the ability of novel rexinoids to increase triglycerides in vivo. Elevated triglycerides are a side-effect found with many RXR agonists in preclinical models and by bexarotene in humans[13],[14]. […] HepG2 human liver cells were used, as the liver is the major organ that regulates lipid homeostasis.
HepG2 were plated in 6-well plates (1 × 10^6 cells/well) and, after allowing the cells to attach overnight, were treated with 300 nM rexinoids and/or varying concentrations of T0901317 (TOCRIS # 2373), GSK 2033 (TOCRIS # 5694), HX 531 (TOCRIS # 3912) for 8 h. Total RNA was isolated with TRIzol (Invitrogen, Carlsbad, CA) and 2 µg RNA was used to synthesize cDNA using the SuperScript III reverse transcriptase kit (Invitrogen, Carlsbad, CA). Primers (IDT) for SREBP (F: 5′-GCCGGTTGATAGGCAGCTT-3′; R: 5′-GGTGAGTGGCGGAACCATT-3′) and GAPDH (F: 5′-[…]-3′; R: 5′-[…]-3′), the SYBR Green Supermix (Bio-rad Laboratories, Hercules, CA) and the QuantStudio 7 Flex Real-Time PCR system (95 °C for 20 s followed by 40 cycles of 95 °C for 15 s and 60 °C for 1 min were used to detect mRNA expression. Relative SREBP/GAPDH gene expression was calculated by the delta-delta Ct method. To evaluate protein expression by western blotting, HepG2 cells were plated as above and treated with 300 nM of rexinoids for 24 h. Cells were harvested and lysed in RIPA buffer (1 M Tris–Cl, 5 M NaCl, pH 7.4, 0.5 M EDTA, 25 mM sodium deoxycholate, 1% triton-X, 0.1% SDS, 0.0125% aprotinin) with protease inhibitors (1% PMSF/0.5% apoprotein/0.1%leupeptin). Protein concentration was measured using a BCA assay (Sigma-Aldrich). Proteins (10 µg/well) were separated in 10% SDS-PAGE gels and transferred to nitrocellulose membranes. Membranes were incubated with SREBP (Active Motif; 1:1000) and GAPDH (Santa Cruz Biotechnology; 1:8000) primary antibodies followed by anti-rabbit secondary antibodies conjugated to horseradish peroxidase (Cell Signaling). Signal was detected using the ECL Western Blotting Substrate (GE Healthcare), and protein levels quantified using ImageJ.
In general terms: A western blot detects proteins with antibodies after separation by electrophoresis.

Data set [1] is described as follows: Plasma triglycerides in MMTV-neu mice fed rexinoids. The data set is classed as in vivo. Particulars: MMTV-neu mice fed rexinoids for 10 days, n=5-6 mice/group. On the procedure: fold expression triglyceride
Supplemental Fig 1. Correlation of SREPB mRNA expression and triglyceride levels. HepG2 human liver cells were treated with 300 nM of rexinoids for 8 hr,and lysates analyzed by RT-PCR. Triglycerides in plasma from MMTV-neu mice fed rexinoids for10 days were measured using a commercial kit(Abcam). *, p <0.01 vs control; **, p<0.05 vs bex and LG268; n=5-6 mice/group.

Data set [2] can be described thus: Mouse weights as a marker of drug toxicity. Particulars: rexinoids in diet; initial week 6, final week 20. The data set is classed as in vivo, A/J mice. An excerpt:
Mouse weights were monitored as a marker of drug toxicity (Supplemental Fig. 3). […] There were no significant differences in the average weights between groups of mice on single drugs.
Control Bexarotene 42011 C/P Bex + C/P 42011 + C/P
Initial weight Final weight
Supplemental Fig 3: Mouse weights. A/J mice were weighed weekly during the study. Values shown represent average mouse weights (n = 14-15/group) before treatment diets (initial weight at week 6) and at the end of the study (final weight at week 20). * p < 0.01 compared to control, # p < 0.01 compared to bexarotene, ! p < 0.05 compared to MSU-42011 (one-way ANOVA followed by Tukey HSD); ** p < 0.05, *** p < 0.01 (two-tailed t test).

The next data set concerns Kras-driven lung tumors. Nature of the data set: Treatment of established vinyl carbamate-induced lung adenocarcinomas in A/J mice. The data set is classed as in vivo. On the procedure: All experiments were performed ethically in accordance with the best practices and AAALAC-accredited Standards for the Management of Laboratory Animals at Michigan State University (MSU). These standards include making every effort to minimize suffering. Mice were euthanized by inhalation of carbon dioxide followed by removal of the lungs. All animal protocols were approved by the Institutional Animal Care and Use Committee (IACUC, protocol 201,800,050)) at MSU. At 7 and 8 weeks of age, A/J female mice (Jackson Laboratories) were injected i.p. with vinyl carbamate (Toronto Research Chemicals, 0.32 mg/mouse). Mice were fed a semi-synthetic diet (AIN-93G BioServ, Flemington NJ), beginning one week before initiation with vinyl carbamate and then for 8 weeks after the first injection. The mice were then randomized into groups (n = 15 mice/group) and fed treatment diets (100 mg rexinoid/kg AIN-93G diet or ~ 25 mg/kg body weight) for 12 weeks. Rexinoids were dissolved in a vehicle of 12.5 ml ethanol and 37.5 ml Neobee oil (Spectrum Chemical, Gardena CA) per kg AIN-93G diet. Six total doses of paclitaxel (Fisher; 15 mg/kg i.p.) and then carboplatin (Fisher; 50 mg/kg i.p.) were given every other week, beginning 9 weeks after injection with vinyl carbamate. After 12 weeks on the treatment diets, blood and lungs were harvested. Lungs were inflated with PBS and surface lesions counted. The left lung was fixed in neutral-buffered formalin (NBF), then sample numbers blinded and randomized. Grossly visible lung tumors on the surface of the left lung were counted. The left lung was embedded in paraffin, step-sectioned (6 sections/lung, 200 microns apart) and then stained with Haemotoxylin and Eosin (H&E). The number, size, and histopathology of tumors on the slides were then evaluated as described. The right lobes of the lung were divided into halves. One half was analyzed by flow cytometry and the other half flash frozen (CO2 and ethanol bath) and stored at − 80 °C.
At 11, 15, and 20 weeks after initiation, anesthesia was induced using 2–4% isofluorane in oxygen at 0.8–2 L/min in a chamber and then maintained using 1.5–2% isofluorane in oxygen at 0.8 L/min using a nosecone. Animals were kept on a heating pad or a heated platform while under anesthesia. Fur was removed from the thoracic area using a chemical depilitory (Nair) immediately prior to imaging. A Vevo 2100 (Fujifilm VisualSonics) high-frequency ultrasound with a MS550D 40 MHz transducer was used to image lung tumors.

Setting [3] is: rexinoids 100 mg/kg diet 12 weeks, C/P i.p. x6.
Where [4] appears, read: rexinoids 100 mg/kg diet 12 weeks, C/P i.p. x6, mean ± SE.
Where [5] appears, read: tumor histopathology, 12 weeks of treatment.

For `C=C(c1ccc(C(=O)O)cc1)c1cc2c(cc1C)C(C)(C)CCC2(C)C` [Bexarotene], the “SREBP protein levels compared to DMSO control” value in the data set with SREBP was “increased SREBP protein levels”. Further, in data set [1], the “Plasma triglyceride levels in mice” value was found to be 2.38 ± 0.3 nmol/µL. Besides, the “Mouse weights during the study” value in data set [2] is reported as “gained weight as expected”. For the same molecule, the “Single agent activity in this model” value in the data set with Kras-driven lung tumors (100 mg/kg diet, 12 weeks) was “inactive”. In addition, the “Tumor grades compared to the controls” value in the data set with Kras-driven lung tumors (12 weeks of treatment) is recorded as “no differences”. Also, the “Average # tumors/slide” value in the data set with Kras-driven lung tumors (rexinoids 100 mg/kg diet 12 weeks, C 50 mg/kg and P 15 mg/kg i.p. x6, mean ± SE) is on record as 3.37 ± 0.3. Also, in the data set on Kras-driven lung tumors (setting [3]), the “Average # tumors/slide (% control)” value is 79%, the “Average tumor burden (% control)” value is 78% and the “Average tumor size (% control)” value came out at 100%. In the data set with Kras-driven lung tumors (setting [4]), the Average tumor burden came out at 0.72 ± 0.2 mm^3 and the Average tumor size came out at 0.22 ± 0.04 mm^3. Also, in the data set on Kras-driven lung tumors (setting [5]), the “# High grade tumors” value turned out to be 71, the “# Low grade tumors” value is 1 (1%), the “# Medium grade” value is reported as 29 (29%) and the “High grade tumors (% total)” value came to 70%. Further, in the data set with Kras-driven lung tumors (setting [5]), the “Low grade tumors (% total)” value is listed as 1 (1%) and the “Medium grade (% total)” value is reported as 29 (29%).

(Values after paper PMC7746742, “The novel rexinoid MSU-42011 is effective for the treatment of preclinical Kras-driven lung cancer” (Scientific Reports, 2020).)
